# Reference: patent US10253002B2, “Compounds and methods of treating infections” (Neoculi Pty Ltd., priority 2013, dated 2019)
# “And” between values parts separate entries of the source, which are not always exact repeats. Equal values may be shown once.
# Tests used:
# [1] = test system: Staphylococcus pseudintermedius isolates (MSSP and MRSP); test: Disk diffusion and Epsilometer susceptibility testing, Example 6; type: cell-based
# [2] = test system: S. aureus isolates (HA-MRSA, CA-MRSA, methicillin-susceptible staphylococci); test: Kirby-Bauer disc diffusion resistotyping, Example 4; type: cell-based, Staphylococcus aureus; settings: for Total isolates resistant (Kirby-Bauer disc diffusion): all isolates (n = 30)
# Procedure: Antibiotic-susceptibility profiling of the isolate collection was undertaken using Kirby-Bauer disc diffusion, as recommended by the Clinical and Laboratory Standards Institute (CLSI) on Mueller-Hinton agar. Isolates were grown overnight on SBA at 37° C. Colonies were suspended in physiological saline. Turbidity was adjusted to a 0.5 McFarland standard and suspensions were spread over the medium. Antibiotic discs according to Table 9 below were transferred onto the inoculated medium and analysed after 24 h incubation at 37° C.
# [3] = test system: S. pneumoniae isolates; test: Disk diffusion susceptibility (CLSI/EUCAST), Example 5; type: cell-based, Streptococcus pneumoniae; settings: for disk diffusion susceptibility category: WCH184 (Table 18)
# Procedure: Isolate susceptibility to 12 different antimicrobials (Table 16) was determined by CLSI and European Committee on Antimicrobial Susceptibility Testing (EUCAST) methods. Antimicrobials were selected based upon the CLSI and EUCAST guidelines. Standardised bacterial suspensions were spread onto MHSBA using a sterile cotton swab. Bacterial suspensions from of Streptococcus pneumoniae were standardised to an OD6O0 between 0.08 and 0.1 using a spectrophotometer and then diluted 1:20. Bacterial colonies were taken from an O/N horse blood agar plate. To ensure the purity of the 1:20 bacterial suspension, 50 μL was spread plated onto horse blood agar and incubated O/N at 37° C. with 5% CO2. The CFU was calculated and compared to the initial plate counts. Antibiotic disks (Purchased from Sigma Aldrich) were placed using a disk dispenser (Purchased from Oxoid) according to CLSI standards. MHSBA plates were incubated for 16 h-24 h at 37° C. in 5% CO2. Zones of complete inhibition were measured in triplicate to the nearest millimeter using a ruler on natural light-reflected growth, and the mode was represented as the diameter for each isolate. Pneumococcal isolates were categorised as sensitive, intermediate (I) or resistant (R) by CLSI standards and quality control (QC) ranges (Table 16).
# [4] = Methicillin-susceptible staphylococci (n = 10)
structure (smiles),measurement,setting,value
CO[C@@]1(NC(=O)C2SC(=C(C(N)=O)C(=O)O)S2)C(=O)N2C(C(=O)O)=C(CSc3nnnn3C)CS[C@@H]21 (some centres unmarked) [Cefotetan],MRSP isolates susceptible,[1]; 13 MRSP isolates,92%
same,isolates resistant (Kirby-Bauer disc diffusion),[2]; CA-MRSA (n = 10),20.00%
same,isolates resistant (Kirby-Bauer disc diffusion),[2]; HA-MRSA (n = 10),80.00%
same,isolates resistant (Kirby-Bauer disc diffusion),[2]; [4],0.00%
same,"resistant isolates, number (percentage)","[2]; Unclassified (n = 2), Overall",2 (100%)
same,Total isolates resistant (Kirby-Bauer disc diffusion),[2],33.33%
same,"resistant isolates, number (percentage)","[2]; mec gene complex A (n = 4), Overall",4 (100%)
same,"resistant isolates, number (percentage)","[2]; mec gene complex A (n = 4), SCCmec type II",3 (100%)
same,"resistant isolates, number (percentage)","[2]; mec gene complex A (n = 4), SCCmec type III",1 (100%)
same,"resistant isolates, number (percentage)","[2]; mec gene complex B (n = 10), Overall",2 (20%)
same,"resistant isolates, number (percentage)","[2]; mec gene complex B (n = 10), SCCmec type I",1 (50%)
same,"resistant isolates, number (percentage)","[2]; mec gene complex B (n = 10), SCCmec type IV",1 (12.5%)
same,"resistant isolates, number (percentage)","[2]; mec gene complex C2 (n = 4), Overall",2 (50%)
same,"resistant isolates, number (percentage)","[2]; mec gene complex C2 (n = 4), SCCmec type V",2 (50%)
CO[C@@]1(NC(=O)Cc2cccs2)C(=O)N2C(C(=O)O)=C(COC(N)=O)CS[C@@H]21 [cefoxitin],MRSP isolates susceptible,"[1]; 13 MRSP, cefoxitin resistance break point set at ≤30 mm",7.7%
same,MRSP isolates susceptible,"[1]; 13 MRSP, cefoxitin resistance breakpoint set at ≤24 mm",23% and 38%
same,ZD,[1]; isolate S1P1,0 mm
same,"ZD, Adl",[1]; isolate S1P1,0 mm
same,ZD,[1]; isolate S2P2,21 mm
same,"ZD, Adl",[1]; isolate S2P2,21 mm
same,ZD,[1]; isolate S3P3,21 mm
same,"ZD, Adl",[1]; isolate S3P3,24 mm
same,ZD,[1]; isolate S4P4,29 mm
same,"ZD, Adl",[1]; isolate S4P4,20 mm
same,ZD,[1]; isolate S5P5,26 mm
same,"ZD, Adl",[1]; isolate S5P5,30 mm
same,ZD,[1]; isolate S6P6,22 mm
same,"ZD, Adl",[1]; isolate S6P6,26 mm
same,ZD,[1]; isolate S7P7,21 mm
same,"ZD, Adl",[1]; isolate S7P7,19 mm
same,ZD,[1]; isolate S8P8,21 mm
same,"ZD, Adl",[1]; isolate S8P8,22 mm
same,ZD,[1]; isolate S9P9,23 mm
same,"ZD, Adl",[1]; isolate S9P9,26 mm
same,ZD,[1]; isolate S10P10,21 mm
same,"ZD, Adl",[1]; isolate S10P10,25 mm
same,ZD,[1]; isolate S11P11,22 mm
same,"ZD, Adl",[1]; isolate S11P11,21 mm
same,ZD,[1]; isolate S12P12,24 mm
same,"ZD, Adl",[1]; isolate S12P12,24 mm
same,ZD,[1]; isolate S13P13,36 mm
same,"ZD, Adl",[1]; isolate S13P13,40 mm
same,ZD,[1]; isolate S14P14,34 mm
same,"ZD, Adl",[1]; isolate S14P14,32 mm
same,ZD,[1]; isolate S15P15,33 mm
same,"ZD, Adl",[1]; isolate S15P15,34 mm
same,ZD,[1]; isolate S16P16,38 mm
same,"ZD, Adl",[1]; isolate S16P16,42 mm
same,ZD,[1]; isolate S17P17,36 mm
same,"ZD, Adl",[1]; isolate S17P17,38 mm
same,ZD,[1]; isolate S18P18,25 mm
same,"ZD, Adl",[1]; isolate S18P18,40 mm
same,ZD,[1]; isolate S19P19,36 mm
same,"ZD, Adl",[1]; isolate S19P19,38 mm
same,ZD,[1]; isolate S20P20,38 mm
same,"ZD, Adl",[1]; isolate S20P20,36 mm
same,ZD,[1]; isolate S21P21,36 mm
same,"ZD, Adl",[1]; isolate S21P21,40 mm
same,ZD,[1]; isolate S22P22,34 mm
same,"ZD, Adl",[1]; isolate S22P22,35 mm
same,ZD,[1]; isolate S23P23,29 mm
same,"ZD, Adl",[1]; isolate S23P23,26 mm
CC(=O)OCC1=C(C(=O)O)N2C(=O)[C@@H](NC(=O)Cc3cccs3)[C@H]2SC1 [cephalothin],MRSP isolates susceptible,[1]; 13 MRSP isolates,62%
CC1(C)S[C@@H]2[C@H](NC(=O)[C@H](N)c3ccc(O)cc3)C(=O)N2[C@H]1C(=O)O [amoxicillin],MRSP isolates susceptible,[1]; 13 MRSP isolates,23%
CC[C@H]1OC(=O)[C@H](C)[C@@H](O[C@H]2C[C@@](C)(OC)[C@@H](O)[C@H](C)O2)[C@H](C)[C@@H](O[C@@H]2O[C@H](C)C[C@H](N(C)C)[C@H]2O)[C@](C)(OC)C[C@@H](C)C(=O)[C@H](C)[C@@H](O)[C@]1(C)O [Clarithromycin],disk diffusion zone diameter,[3]; A66.1,30 mm
same,disk diffusion zone diameter,[3]; D39,32 mm
same,disk diffusion zone diameter,[3]; EF3030,32 mm
same,disk diffusion zone diameter,[3]; L82016,34 mm
same,disk diffusion zone diameter,[3]; P9,40 mm
same,disk diffusion zone diameter,[3]; P21,38 mm
same,disk diffusion zone diameter,[3]; TIGR4,35 mm
same,disk diffusion zone diameter,[3]; WCH16,33 mm
same,disk diffusion zone diameter,[3]; WCH43,28 mm
same,disk diffusion zone diameter,[3]; WCH46,39 mm
same,disk diffusion zone diameter,[3]; WCH57,39 mm
same,disk diffusion zone diameter,[3]; WCH77,37 mm
same,disk diffusion zone diameter,[3]; WCH86,36 mm
same,disk diffusion zone diameter,[3]; WCH89,31 mm
same,disk diffusion zone diameter,[3]; WCH92,27 mm
same,disk diffusion zone diameter,[3]; WCH137,33 mm
same,disk diffusion zone diameter,[3]; WCH158,38 mm
same,disk diffusion zone diameter,[3]; WCH184,10 mm
same,disk diffusion susceptibility category,[3],R
same,disk diffusion zone diameter,[3]; WCH211,33 mm
same,disk diffusion zone diameter,[3]; WU2,31 mm
CCC[C@@H]1C[C@@H](C(=O)N[C@@H]([C@H]2O[C@H](SC)[C@H](O)[C@@H](O)[C@H]2O)[C@H](C)Cl)N(C)C1 [Clindamycin],disk diffusion zone diameter,[3]; A66.1,34 mm
same,disk diffusion zone diameter,[3]; D39,27 mm
same,disk diffusion zone diameter,[3]; EF3030,26 mm
same,disk diffusion zone diameter,[3]; L82016,32 mm
same,disk diffusion zone diameter,[3]; P9,31 mm
same,disk diffusion zone diameter,[3]; P21,25 mm
same,disk diffusion zone diameter,[3]; TIGR4,28 mm
same,disk diffusion zone diameter,[3]; WCH16,28 mm
same,disk diffusion zone diameter,[3]; WCH43,22 mm
same,disk diffusion zone diameter,[3]; WCH46,30 mm
same,disk diffusion zone diameter,[3]; WCH57,34 mm
same,disk diffusion zone diameter,[3]; WCH77,28 mm
same,disk diffusion zone diameter,[3]; WCH86,30 mm
same,disk diffusion zone diameter,[3]; WCH89,27 mm
same,disk diffusion zone diameter,[3]; WCH92,24 mm
same,disk diffusion zone diameter,[3]; WCH137,26 mm
same,disk diffusion zone diameter,[3]; WCH158,32 mm
same,disk diffusion zone diameter,[3]; WCH184,10 mm
same,disk diffusion susceptibility category,[3],R
same,disk diffusion zone diameter,[3]; WCH211,27 mm
same,disk diffusion zone diameter,[3]; WU2,27 mm
same,isolates resistant (Kirby-Bauer disc diffusion),[2]; CA-MRSA (n = 10),50.00%
same,isolates resistant (Kirby-Bauer disc diffusion),[2]; HA-MRSA (n = 10),50.00%
same,isolates resistant (Kirby-Bauer disc diffusion),[2]; [4],30.00%
same,Total isolates resistant (Kirby-Bauer disc diffusion),[2],43.33%
same,Total isolates resistant (Kirby-Bauer disc diffusion),[2]; listed as clindamycin,43.33%
CC1=C(C(=O)O)N2C(=O)[C@@H](NC(=O)[C@H](N)c3ccccc3)[C@H]2SC1 [Cephalexin],isolates resistant (Kirby-Bauer disc diffusion),[2]; CA-MRSA (n = 10),20.00%
same,isolates resistant (Kirby-Bauer disc diffusion),[2]; HA-MRSA (n = 10),80.00%
same,isolates resistant (Kirby-Bauer disc diffusion),[2]; [4],10.00%
same,Total isolates resistant (Kirby-Bauer disc diffusion),[2],40.00%
CO[C@H]1/C=C/O[C@@]2(C)Oc3c(C)c(O)c4c(O)c(c(/C=N/N5CCN(C)CC5)c(O)c4c3C2=O)NC(=O)/C(C)=C\C=C\[C@H](C)[C@H](O)[C@@H](C)[C@@H](O)[C@@H](C)[C@H](OC(C)=O)[C@@H]1C [Rifampicin],disk diffusion zone diameter,[3]; A66.1,32 mm
same,disk diffusion zone diameter,[3]; D39,28 mm
same,disk diffusion zone diameter,[3]; EF3030,32 mm
same,disk diffusion zone diameter,[3]; L82016,26 mm
same,disk diffusion zone diameter,[3]; P9,27 mm
same,disk diffusion zone diameter,[3]; P21,32 mm
same,disk diffusion zone diameter,[3]; TIGR4,30 mm
same,disk diffusion zone diameter,[3]; WCH16,30 mm
same,disk diffusion zone diameter,[3]; WCH43,27 mm
same,disk diffusion zone diameter,[3]; WCH46,29 mm
same,disk diffusion zone diameter,[3]; WCH57,38 mm
same,disk diffusion zone diameter,[3]; WCH77,33 mm
same,disk diffusion zone diameter,[3]; WCH86,31 mm
same,disk diffusion zone diameter,[3]; WCH89,32 mm
same,disk diffusion zone diameter,[3]; WCH92,22 mm
same,disk diffusion zone diameter,[3]; WCH137,30 mm
same,disk diffusion zone diameter,[3]; WCH158,34 mm
same,disk diffusion zone diameter,[3]; WCH184,32 mm
same,disk diffusion zone diameter,[3]; WCH211,32 mm
same,disk diffusion zone diameter,[3]; WU2,31 mm
same,isolates resistant (Kirby-Bauer disc diffusion),[2]; CA-MRSA (n = 10),0.00%
same,isolates resistant (Kirby-Bauer disc diffusion),[2]; HA-MRSA (n = 10),10.00%
same,isolates resistant (Kirby-Bauer disc diffusion),[2]; [4],0.00%
same,Total isolates resistant (Kirby-Bauer disc diffusion),[2],3.33%
same,Total isolates resistant (Kirby-Bauer disc diffusion),[2]; listed as rifampicin,3.33%
CC1(C)S[C@@H]2[C@H](NC(=O)Cc3ccccc3)C(=O)N2[C@H]1C(=O)O [Penicillin-G],isolates resistant (Kirby-Bauer disc diffusion),[2]; CA-MRSA (n = 10),100.00%
same,isolates resistant (Kirby-Bauer disc diffusion),[2]; HA-MRSA (n = 10),100.00%
same,isolates resistant (Kirby-Bauer disc diffusion),[2]; [4],50.00%
same,Total isolates resistant (Kirby-Bauer disc diffusion),[2],83.33%
same,Total isolates resistant (Kirby-Bauer disc diffusion),[2]; listed as penicillin-G,83.33%
COc1c(N2C[C@@H]3CCCN[C@@H]3C2)c(F)cc2c(=O)c(C(=O)O)cn(C3CC3)c12 [moxifloxacin],MRSP isolates susceptible,[1]; 13 MRSP isolates,92%
